Data from patent US9708336B2, “Metallo-beta-lactamase inhibitors” (priority 2014, dated 2017).
Read-outs that look alike come from different tables or passages of the source.

Legend:
NDM-1 = NDM-1 (Klebsiella pneumoniae, UniProt C7C422); assay: biochemical; format: biochemical; conditions: read-out: NDM-1 IC50
IMP-1 = IMP-1 (Serratia marcescens, UniProt P52699); assay: biochemical; format: biochemical; conditions: read-out: IMP-1 IC50
[1] = tested on: Escherichia coli expressing NDM-1 (CLB30016); assay: Antibiotic potentiation activity: synergistic concentration (MITC95) with imipenem, OD600 growth; format: cell-based; conditions: for Escherichia coli expressing NDM-1 (CLB 30016) MITC95: concentration giving 95% inhibition of bacterial growth
Procedure, shortened: (§1)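 Test compound was combined with 4 μg/ml imipenem (or optionally 1 μg/ml), or with no antibiotic, against saline-suspended colonies diluted 1:100 in 1.1×CAMHB. Strains were E. coli NDM-1, S. marcescens IMP-1 and K. pneumoniae VIM-1. Plates were incubated 22–24 h at 35 °C before absorbance (OD600) readout.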

[2] = tested on: Klebsiella pneumoniae expressing VIM-1 (IHMA599644); assay: as above; format: cell-based; conditions: for Klebsiella pneumoniae expressing VIM-1 (IHMA 599644) MITC95: concentration giving 95% inhibition of bacterial growth
Procedure, shortened: as §1

[3] = tested on: Serratia marcescens expressing IMP-1 (CL5741); assay: as above; format: cell-based; conditions: for Serratia marcescens expressing IMP-1 (CL5741) MITC95: concentration giving 95% inhibition of bacterial growth
Procedure, shortened: as §1

VIM-1 = VIM-1 (Pseudomonas aeruginosa (strain ATCC 15692 / DSM 22644 / CIP 104116 / JCM 14847 / LMG 12228 / 1C / PRS 101 / PAO1), UniProt A0A0F7KYQ8); assay: Enzyme activity: determination of IC50, fluorescence assay with CCF2-FA substrate (VIM-1); format: biochemical
[4] = fluorescence assay with CCF2-FA substrate
[5] = fluorescence assay with CCF2-FA substrate, read-out: VIM-1 IC50
[6] = NDM-1 enzyme, CCF2-FA substrate
[7] = IMP-1 enzyme, CCF2-FA substrate
[8] = (CLB30016, NDM-1), 95% growth inhibition
[9] = Klebsiella pneumoniae IHMA599644 (VIM-1), 95% growth inhibition
[10] = Serratia marcescens CL5741 (IMP-1), 95% growth inhibition
[11] = VIM-1 enzyme, CCF2-FA substrate, read-out: VIM-1 IC50
[12] = CLB30016 (NDM-1), 95% inhibition of bacterial growth
[13] = IHMA599644 (VIM-1), 95% inhibition of bacterial growth
[14] = CL5741 (IMP-1), 95% inhibition of bacterial growth
[15] = NDM-1 enzyme, CCF2-FA fluorescence assay
[16] = IMP-1 enzyme, CCF2-FA fluorescence assay
[17] = Escherichia coli expressing NDM-1 (CLB30016), 95% growth inhibition
[18] = Klebsiella pneumoniae expressing VIM-1 (IHMA599644), 95% growth inhibition
[19] = Serratia marcescens expressing IMP-1 (CL5741), 95% growth inhibition
[20] = VIM-1 enzyme, CCF2-FA fluorescence assay, read-out: VIM-1 IC50

Sequence of IMP-1 (P52699 whole entry, looked up): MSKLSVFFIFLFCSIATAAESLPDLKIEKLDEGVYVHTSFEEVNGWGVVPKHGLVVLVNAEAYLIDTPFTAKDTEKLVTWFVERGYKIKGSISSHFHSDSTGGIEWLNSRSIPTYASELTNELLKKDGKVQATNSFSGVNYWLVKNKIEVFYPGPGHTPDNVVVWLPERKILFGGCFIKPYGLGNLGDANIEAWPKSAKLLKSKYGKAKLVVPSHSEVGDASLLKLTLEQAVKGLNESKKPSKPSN
Sequence of NDM-1 (C7C422 whole entry, looked up, species assumed): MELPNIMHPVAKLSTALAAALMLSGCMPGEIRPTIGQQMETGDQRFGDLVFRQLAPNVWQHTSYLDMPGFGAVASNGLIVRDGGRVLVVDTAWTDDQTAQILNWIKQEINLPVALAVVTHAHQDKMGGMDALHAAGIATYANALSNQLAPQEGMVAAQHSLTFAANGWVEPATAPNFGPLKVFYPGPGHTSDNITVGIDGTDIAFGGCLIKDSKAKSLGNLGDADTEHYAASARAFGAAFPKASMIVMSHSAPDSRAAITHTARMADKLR

Row | SMILES | IC50 (NDM-1; [4]) | IC50 (IMP-1; [4]) | IC50 (VIM-1; [5]) | IC50 (NDM-1; [6]) | IC50 (IMP-1; [7]) | Escherichia coli MITC95 [1, 8] | Klebsiella pneumoniae MITC95 [2, 9] | Serratia marcescens MITC95 [3, 10] | IC50 (VIM-1; [11]) | further results
1 | NS(=O)(=O)c1nccc(NCCC2CCCCC2)c1-c1nnn[nH]1 [Example 236, 4-[(2-cyclohexylethyl)amino]-3-(1H-tetrazol-5-yl)pyridine-2-sulfonamide] | 38.6 nM | 223 nM | 188 nM |  |  |  |  |  |  | Escherichia coli expressing NDM-1 (CLB 30016) MITC95 [1]: 18.75 µM; Klebsiella pneumoniae expressing VIM-1 (IHMA 599644) MITC95 [2]: >200 µM; Serratia marcescens expressing IMP-1 (CL5741) MITC95 [3]: 25 µM
2 | NS(=O)(=O)c1c(C(F)(F)F)ccc([C@H]2CC[C@H](NC3CCNCC3)CC2)c1-c1nnn[nH]1 [Example 698, 3-[4-(piperidin-4-ylamino)cyclohexyl]-2-(1H-tetrazol-5-yl)-6-(trifluoromethyl)benzene sulfonamide] |  |  |  | 10 nM | 29.6 nM | 0.7813 µM | 3.125 µM | 3.125 µM | 6.52 nM | 
3 | NC1(c2ccc(-c3ccc(C(F)(F)F)c(S(N)(=O)=O)c3-c3nnn[nH]3)cc2)CCOC1 (stereo not drawn) [Example 730, 4′-(3-aminotetrahydrofuran-3-yl)-2-(1H-tetrazol-5-yl)-4-(trifluoromethyl)biphenyl-3-sulfonamide] |  |  |  | 2.8 nM | 3.57 nM | 3.125 µM | 50 µM | 3.125 µM | 6 nM | 
4 | NS(=O)(=O)c1c(C(F)(F)F)ccc(N2C[C@@H](O)[C@@H](O)C2)c1-c1nnn[nH]1 [Example 757, 3-[(3R,4S)-3,4-dihydroxypyrrolidin-1-yl]-2-(1H-tetrazol-5-yl)-6-(trifluoromethyl) benzenesulfonamide] | 82.8 nM | 111 nM |  |  |  |  |  |  |  | Escherichia coli MITC95 [1, 12]: 12.5 µM; Klebsiella pneumoniae MITC95 [2, 13]: >200 µM; Serratia marcescens MITC95 [3, 14]: 25 µM; IC50 (VIM-1; VIM-1 IC50, fluorescence assay with CCF2-FA substrate): 353 nM
5 | NC1CCC2CN(c3ccc(C(F)(F)F)c(S(N)(=O)=O)c3-c3nnn[nH]3)CC2C1 (stereo not drawn) [Example 767, 3-(5-aminooctahydro-2H-isoindol-2-yl)-2-(1H-tetrazol-5-yl)-6-(trifluoromethyl) benzenesulfonamide] | 208 nM | 223 nM | 4.58 nM |  |  |  |  |  |  | Escherichia coli MITC95 [1, 12]: 200 µM; Klebsiella pneumoniae MITC95 [2, 13]: 12.5 µM; Serratia marcescens MITC95 [3, 14]: 50 µM
6 | NCCCCNc1nc2c(-c3cccc(S(N)(=O)=O)c3-c3nnn[nH]3)cccc2s1 [Example 642, 3-[2-(4-aminobutylamino)-1,3-benzothiazol-4-yl]-2-(1H-tetrazol-5-yl)benzenesulfonamide] |  |  |  | 1.01 nM | 51.9 nM | 1.563 µM | 50 µM | 25 µM | 9 nM | 
7 | NS(=O)(=O)c1cccc(-c2cnc3ccccn23)c1-c1nnn[nH]1 [Example 404, 3-imidazo[1,2-a]pyridin-3-yl-2-(1H-tetrazol-5-yl)benzenesulfonamide] |  |  |  |  |  |  |  |  |  | IC50 (NDM-1; [15]): 0.817 nM; IC50 (IMP-1; [16]): 71.4 nM; Escherichia coli MITC95 [1, 17]: 0.0625 µM; Klebsiella pneumoniae MITC95 [2, 18]: 2.563 µM; Serratia marcescens MITC95 [3, 19]: 1.708 µM; IC50 (VIM-1; [20]): 5.41 nM
8 | NS(=O)(=O)c1nccc(N2CCC(c3cccnc3)CC2)c1-c1nnn[nH]1 [Example 218, 4-(4-pyridin-3-ylpiperidin-1-yl)-3-(1H-tetrazol-5-yl)pyridine-2-sulfonamide] | 102 nM | 484 nM | 106 nM |  |  |  |  |  |  | Escherichia coli expressing NDM-1 (CLB 30016) MITC95 [1]: 12.5 µM; Klebsiella pneumoniae expressing VIM-1 (IHMA 599644) MITC95 [2]: 100 µM; Serratia marcescens expressing IMP-1 (CL5741) MITC95 [3]: 25 µM
9 | Nc1nc2c(-c3ccc(C(F)CO)c(S(N)(=O)=O)c3-c3nn[nH]n3)cccc2s1 (stereo not drawn) [Example 532, 3-(2-Aminobenzo[d]thiazol-4-yl)-6-(1-fluoro-2-hydroxyethyl)-2-(2H-tetrazol-5-yl)benzenesulfonamide] |  |  |  | 0.598 nM | 6.42 nM | 12.5 µM | 12.5 µM | 12.5 µM | 3.96 nM | 
10 | Cc1ccccc1Cc1cccc(S(N)(=O)=O)c1-c1nnn[nH]1 [Example 155, 3-(2-methylbenzyl)-2-(1H-tetrazol-5-yl)benzenesulfonamide] | 3 nM | 92.7 nM | 16.2 nM |  |  |  |  |  |  | Escherichia coli expressing NDM-1 (CLB 30016) MITC95 [1]: 3.125 µM; Klebsiella pneumoniae expressing VIM-1 (IHMA 599644) MITC95 [2]: 75 µM; Serratia marcescens expressing IMP-1 (CL5741) MITC95 [3]: 2.344 µM
11 | NS(=O)(=O)c1c(C(F)(F)F)ccc(N2CCC3(CCNCC3)C2)c1-c1nnn[nH]1 [Example 771, 3-(2,8-diazaspiro[4.5]dec-2-yl)-2-(1H-tetrazol-5-yl)-6-(trifluoromethyl) benzenesulfonamide] | 30.7 nM | 227 nM | 22.9 nM |  |  |  |  |  |  | Escherichia coli MITC95 [1, 12]: 25 µM; Klebsiella pneumoniae MITC95 [2, 13]: 50 µM; Serratia marcescens MITC95 [3, 14]: 50 µM
12 | Nc1ccnc2ccc(-c3ccc(C(F)(F)F)c(S(N)(=O)=O)c3-c3nnn[nH]3)cc12 [Example 479, 3-(4-amino-6-quinolyl)-2-(1H-tetrazol-5-yl)-6-(trifluoromethyl)benzenesulfonamide] |  |  |  |  |  |  |  |  |  | IC50 (NDM-1; [15]): 6.66 nM; IC50 (IMP-1; [16]): 30.3 nM; Escherichia coli MITC95 [1, 17]: 0.3906 µM; Klebsiella pneumoniae MITC95 [2, 18]: 0.7813 µM; Serratia marcescens MITC95 [3, 19]: 1.563 µM; IC50 (VIM-1; [20]): 0.373 nM
13 | Nc1cnc2cc(-c3cccc(S(N)(=O)=O)c3-c3nnn[nH]3)ccc2c1 [Example 416, 3-(3-amino-7-quinolyl)-2-(1H-tetrazol-5-yl)benzenesulfonamide] |  |  |  |  |  |  |  |  |  | IC50 (NDM-1; [15]): 2.42 nM; IC50 (IMP-1; [16]): 56.5 nM; Escherichia coli MITC95 [1, 17]: 2.344 µM; Klebsiella pneumoniae MITC95 [2, 18]: 25 µM; Serratia marcescens MITC95 [3, 19]: 6.25 µM; IC50 (VIM-1; [20]): 13.7 nM
14 | NS(=O)(=O)c1cccc(C2CCC(O)CC2)c1-c1nn[nH]n1 (stereo not drawn) [Example 171, 3-(4-hydroxycyclohexyl)-2-(2H-tetrazol-5-yl)benzenesulfonamide] | 8.56 nM | 119 nM | 128 nM |  |  |  |  |  |  | Escherichia coli expressing NDM-1 (CLB 30016) MITC95 [1]: 2.344 µM; Klebsiella pneumoniae expressing VIM-1 (IHMA 599644) MITC95 [2]: 25 µM; Serratia marcescens expressing IMP-1 (CL5741) MITC95 [3]: 6.25 µM
15 | CS(=O)(=O)Nc1ccc(-c2ccc(Br)c(S(N)(=O)=O)c2-c2nn[nH]n2)cc1 [Example 270, 4-bromo-4′-(methylsulfonamido)-2-(2H-tetrazol-5-yl)-[1,1′-biphenyl]-3-sulfonamide] |  |  |  |  |  |  |  |  |  | IC50 (NDM-1; [15]): 2.56 nM; IC50 (IMP-1; [16]): 4.86 nM; Escherichia coli MITC95 [1, 17]: 1.563 µM; Klebsiella pneumoniae MITC95 [2, 18]: 6.25 µM; Serratia marcescens MITC95 [3, 19]: 0.3906 µM; IC50 (VIM-1; [20]): 1.68 nM
16 | NS(=O)(=O)c1c(C(F)(F)F)ccc(-c2snc3ncccc23)c1-c1nnn[nH]1 [Example 709, 3-isothiazolo[3,4-b]pyridin-3-yl-2-(1H-tetrazol-5-yl)-6-(trifluoromethyl)benzenesulfon-amide] |  |  |  | 6.58 nM | 16.4 nM | 6.25 µM | 6.25 µM | 25 µM | 0.289 nM | 
17 | Nc1ncc2c(-c3ccc(C(F)(F)F)c(S(N)(=O)=O)c3-c3nn[nH]n3)cccc2n1 [Example 556, 3-(2-aminoquinazolin-5-yl)-2-(2H-tetrazol-5-yl)-6-(trifluoromethyl)benzenesulfonamide] |  |  |  | 0.125 nM | 2.97 nM | 25 µM | 12.5 µM | 12.5 µM | 0.122 nM | 
18 | NS(=O)(=O)c1c(C(F)(F)F)ccc(-c2ccc(-c3c[nH]c(O)n3)cc2)c1-c1nnn[nH]1.O=C(O)C(F)(F)F [Example 559, 3-[4-(2-hydroxy-1H-imidazol-4-yl)phenyl]-2-(1H-tetrazol-5-yl)-6-(trifluoromethyl)benzenesulfonamide] |  |  |  | 0.439 nM | 0.534 nM | 12.5 µM | 12.5 µM | 6.25 µM | 0.212 nM | 
19 | CC(C)(C)Cc1cccc(S(N)(=O)=O)c1-c1nnn[nH]1 [Example 159, 3-neopentyl-2-(1H-tetrazol-5-yl)benzenesulfonamide] | 34 nM | 526 nM | 3390 nM |  |  |  |  |  |  | Escherichia coli expressing NDM-1 (CLB 30016) MITC95 [1]: 3.125 µM; Klebsiella pneumoniae expressing VIM-1 (IHMA 599644) MITC95 [2]: >200 µM; Serratia marcescens expressing IMP-1 (CL5741) MITC95 [3]: 18.75 µM
